Data: patent US20250230140A1 (Viva Star Biosciences (Suzhou) Co., Ltd., priority 2021, published 2025)

Biological target: T1, LPA1 (Homo sapiens, UniProt Q92633)
T1 construct: ProLink (β-galactosidase enzyme-donor fragment); host or cells: CHO-K1 (PathHunter EDG2 β-Arrestin cell line)
Experiment: LPA1 calcium flux assay (LPA1 functional antagonist assay)
Type: cell-based
Conditions: PathHunter CHO-K1 EDG2 β-Arrestin cells, calcium indicator dye, stimulated with EC80 concentration of LPA, FLIPR
Protocol: The effectiveness of compounds of the present invention as LPA1 inhibitors can be determined in an LPA1 functional antagonist assay as follows.
PathHunter® CHO-K1 EDG2 β-Arrestin Cell Line (Eurofins DiscoverX Corporation, Cat #93-0644C2) were plated overnight (11,500 cells/well) in poly-D-lysine coated 384-well microplates (Corning, Cat #356697) in AssayComplete™ Cell Plating 35 Reagent (Eurofins DiscoverX Corporation, Cat #93-0563R35). Following overnight culture, cells were loaded with calcium indicator dye from the HitHunter Calcium No WashPLUS Assay kit (Eurofins DiscoverX Corporation, Cat #93-0091) for 45 minutes at 37° C. Test compounds solubilized in DMSO (Sigma, Cat #276855) on 384-well polypropylene microplates (Greiner bio-one, Cat #781280) were then diluted to intermediate concentration with assay buffer [1×HBSS calcium/magnesium (Corning, Cat #21-023-CM) and 20 mM HEPES (Corning, Cat #25-060-Cl)] before addition to cells by Agilent Velocity 11 with a final concentration of 0.4% DMSO. After compound addition, assay plates were equilibrated to room temperature for 30 minutes. Cells were then stimulated by addition of EC80 concentration of LPA (Cat #, 10010093) in assay buffer containing [1×HBSS calcium/magnesium (Corning, Cat #21-023-CM), 20 mM HEPES (Corning, Cat #25-060-Cl), and 0.1% BSA (Sigma, Cat #A8806)] using Molecular Devices FLIPR Tetra PLUS®. IC50 values were determined by Chemical and Biological Information System from ChemInnovation Software, Inc.
The compounds of this invention were tested for their activity to inhibit LPA1 as determined in an LPA1 functional antagonist assay as described herein.

T1 sequence (Q92633 whole entry, the tested form may be a part): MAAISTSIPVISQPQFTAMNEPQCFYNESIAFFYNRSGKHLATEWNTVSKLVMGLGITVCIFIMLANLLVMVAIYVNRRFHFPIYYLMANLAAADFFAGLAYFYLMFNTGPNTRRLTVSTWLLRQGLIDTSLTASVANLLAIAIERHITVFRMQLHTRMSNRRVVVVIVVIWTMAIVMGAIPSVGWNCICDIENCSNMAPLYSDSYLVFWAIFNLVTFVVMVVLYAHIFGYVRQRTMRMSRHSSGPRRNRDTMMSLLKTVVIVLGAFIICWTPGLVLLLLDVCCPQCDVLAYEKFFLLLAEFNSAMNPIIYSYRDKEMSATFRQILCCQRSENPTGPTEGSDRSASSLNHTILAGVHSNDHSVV

CCc1nc(-c2nnn(C)c2COc2nccc(C3CCC3)n2)ccc1N1CC[C@@H]([C@H](C)C(=O)O)C1 [Example 10]
IC50: < 100 nM

CCc1nc(-c2nnn(C)c2COc2nccc(C3CCC3)n2)ccc1N1CC[C@H]([C@H](C)C(=O)O)C1 [Example 11]
IC50: < 100 nM

CCCc1ccc(=O)n(Cc2c(-c3ccc(N4CC[C@@H]([C@@H](C)C(=O)O)C4)c(CC)n3)nnn2C)c1 [Example 12, (R)-2-((S)-1-(2-ethyl-6-(1-methyl-5-((2-oxo-5-propylpyridin-1(2H)-yl)methyl)-1H-1,2,3-triazol-4-yl)pyridin-3-yl)pyrrolidin-3-yl)propanoic acid]
IC50: 500 to 5000 nM

CCCc1ccc(=O)n(Cc2c(-c3ccc(N4CC[C@@H]([C@H](C)C(=O)O)C4)c(CC)n3)nnn2C)c1 [Example 13, (S)-2-((S)-1-(2-ethyl-6-(1-methyl-5-((2-oxo-5-propylpyridin-1(2H)-yl)methyl)-1H-1,2,3-triazol-4-yl)pyridin-3-yl)pyrrolidin-3-yl)propanoic acid]
IC50: 100 to 500 nM

CCCc1ccc(=O)n(Cc2c(-c3ccc(N4CC[C@@H](C(C)(C)C(=O)O)C4)c(CC)n3)nnn2C)c1 [Example 14]
IC50: < 100 nM

CCCc1ccc(=O)n(Cc2c(-c3ccc(N4CC[C@@H](C(C)(C)C(=O)O)C4)c(C)n3)nnn2C)c1 [Example 15, (S)-2-methyl-2-(1-(2-methyl-6-(1-methyl-5-((2-oxo-5-propylpyridin-1(2H)-yl)methyl)-1H-1,2,3-triazol-4-yl)pyridin-3-yl)pyrrolidin-3-yl)propanoic acid]
IC50: < 100 nM

CCCc1ccc(=O)n(Cc2c(-c3ccc(N4CC[C@H](C(C)(C)C(=O)O)C4)c(CC)n3)nnn2C)c1 [Example 16, (R)-2-(1-(2-ethyl-6-(1-methyl-5-((2-oxo-5-propylpyridin-1(2H)-yl)methyl)-1H-1,2,3-triazol-4-yl)pyridin-3-yl)pyrrolidin-3-yl)-2-methylpropanoic acid]
IC50: 500 to 5000 nM

Cc1nc(-c2nnn(C)c2COc2nccc(C3CCC3)n2)ccc1C1CC(CC(=O)O)CCO1 (centres unmarked) [Example 26, 2-(2-(6-(5-(((4-cyclobutylpyrimidin-2-yl)oxy)methyl)-1-methyl-11H-1,2,3-triazol-4-yl)-2-methylpyridin-3-yl)tetrahydro-2H-pyran-4-yl)acetic acid]
IC50: 100 to 500 nM

CCCc1ccc(=O)n(Cc2c(-c3ccc(C4CC(CC(=O)O)CCO4)c(C)n3)nnn2C)c1 (centres unmarked) [Example 27, 2-[2-(2-methyl-6-{1-methyl-5-[(2-oxo-5-propyl-1,2-dihydropyridin-1-yl)methyl]-1H-1,2,3-triazol-4-yl}pyridin-3-yl)oxan-4-yl]acetic acid]
IC50: 500 to 5000 nM

Cc1nc(-c2nnn(C)c2COc2nccc(C3CCC3)n2)ccc1C1COCC(CC(=O)O)C1 (centres unmarked) [Example 28, 2-{5-[6-(5-{[(4-cyclobutylpyrimidin-2-yl)oxy]methyl}-1-methyl-1H-1,2,3-triazol-4-yl)-2-methylpyridin-3-yl]oxan-3-yl}acetic acid]
IC50: 100 to 500 nM

CCCc1ccc(=O)n(Cc2c(-c3ccc(C4COCC(CC(=O)O)C4)c(C)n3)nnn2C)c1 (centres unmarked) [Example 29]
IC50: 500 to 5000 nM

CCCN(C)C(=O)OCc1c(-c2ccc(C3CCOC(CC(=O)O)C3)c(CC)n2)nnn1C (centres unmarked) [Example 30, 2-(4-{2-ethyl-6-[1-methyl-5-({[methyl(propyl)carbamoyl]oxy}methyl)-1H-1,2,3-triazol-4-yl]pyridin-3-yl}oxan-2-yl)acetic acid]
IC50: 500 to 5000 nM

CCCc1ccc(=O)n(Cc2c(-c3ccc(C4CCOC(CC(=O)O)C4)c(CC)n3)nnn2C)c1 (centres unmarked) [Example 31, 2-(4-(2-ethyl-6-(1-methyl-5-((2-oxo-5-propylpyridin-1(2H)-yl)methyl)-1H-1,2,3-triazol-4-yl)pyridin-3-yl)tetrahydro-2H-pyran-2-yl)acetic acid]
IC50: 500 to 5000 nM

CCc1nc(-c2nnn(C)c2COc2nccc(C3CCC3)n2)ccc1C1CCOC(CC(=O)O)C1 (centres unmarked) [Example 32, 2-(4-(6-(5-(((4-cyclobutylpyrimidin-2-yl)oxy)methyl)-1-methyl-1H-1,2,3-triazol-4-yl)-2-ethylpyridin-3-yl)tetrahydro-2H-pyran-2-yl)acetic acid]
IC50: < 100 nM

CCc1nc(-c2nnn(C)c2COc2cc(-n3cccn3)ncn2)ccc1C1CCOC(CC(=O)O)C1 (centres unmarked) [Example 33, 2-(4-(6-(5-(((6-(1H-pyrazol-1-yl)pyrimidin-4-yl)oxy)methyl)-1-methyl-1H-1,2,3-triazol-4-yl)-2-ethylpyridin-3-yl)tetrahydro-2H-pyran-2-yl)acetic acid]
IC50: 100 to 500 nM

CCCc1ccc(=O)n(Cc2c(-c3ccc(C4CCCC(CC(=O)O)C4)c(C)n3)nnn2C)c1 (centres unmarked) [Example 38, 2-[3-(2-methyl-6-{1-methyl-5-[(2-oxo-5-propyl-1,2-dihydropyridin-1-yl)methyl]-1H-1,2,3-triazol-4-yl}pyridin-3-yl)cyclohexyl]acetic acid]
IC50: 100 to 500 nM

Cc1nc(-c2nnn(C)c2COc2nccc(C3CCC3)n2)ccc1C1CCCC(CC(=O)O)C1 (centres unmarked) [Example 39, 2-{3-[6-(5-{[(4-cyclobutylpyrimidin-2-yl)oxy]methyl}-1-methyl-1H-1,2,3-triazol-4-yl)-2-methylpyridin-3-yl]cyclohexyl}acetic acid]
IC50: < 100 nM

Cc1nc(-c2nnn(C)c2CN2CC(CC3CC3)N(C)C2=O)ccc1O[C@H]1CCC[C@H](C(=O)O)C1 (stereo partly drawn) [Example 42, (1S,3S)-3-((6-(5-((4-(cyclopropylmethyl)-3-methyl-2-oxoimidazolidin-1-yl)methyl)-1-methyl-1H-1,2,3-triazol-4-yl)-2-methylpyridin-3-yl)oxy)cyclohexane-1-carboxylic acid]
IC50: 100 to 500 nM

CCCc1ccc(=O)n(Cc2c(-c3ccc(O[C@H]4CCC[C@H](C(=O)O)C4)c(CC)n3)nnn2C)c1 [Example 43, (1S,3S)-3-((2-ethyl-6-(1-methyl-5-((2-oxo-5-propylpyridin-1(2H)-yl)methyl)-1H-1,2,3-triazol-4-yl)pyridin-3-yl)oxy)cyclohexanecarboxylic acid]
IC50: < 100 nM

CCc1nc(-c2nnn(C)c2Cn2cc(CC3CC3)ccc2=O)ccc1O[C@H]1CCC[C@H](C(=O)O)C1 [Example 44, (1S,3S)-3-((6-(5-((5-(cyclopropylmethyl)-2-oxopyridin-1(2H)-yl)methyl)-1-methyl-1H-1,2,3-triazol-4-yl)-2-ethylpyridin-3-yl)oxy)cyclohexanecarboxylic acid]
IC50: < 100 nM
